Reference: patent publication US20180369143A1, “METAL COMPLEXED THERAPEUTIC AGENTS AND LIPID-BASED NANOPARTICULATE FORMULATIONS THEREOF” (BRITISH COLUMBIA CANCER AGENCY BRANCH, priority 2015, published 2018)
Values after ≈ are worked out from the molar mass of the structure shown. “Also recorded” adds a separate entry of the source.

Experiments:
[1] = test system: MV-4-11, HCT116WT, HCT116B18 and HCT116B46 cells; test: Cytotoxicity IC50 comparison of CX5461 with metal salts in a cell panel; format: cell-based
Experimental: (§1) For studies with DDC, the cell lines U87, and A549 were obtained from ATCC, HBEpC (Human Bronchial Epithelial Cells) was obtained from Cell Applications (San Deigo, Calif.) and MDA-231-BR was from the NIH/NCI. The U251MG glioblastoma cell line (formerly known as U-373 MG) was originally obtained from American Type Culture Collection (Manassas, Va.) and was used for a maximum of fifteen passages. Subsequently, the U251MG was obtained from Sigma-Aldrich (product number 09063001). […] Both cell lines are now being maintained as separate lines U251MG^O (original line) and U251MG^SA (Sigma-Aldrich). U87, U251MG^O, A549 and MDA231-BR cells were maintained in DMEM (Gibco) supplemented with 2 mM L-glutamine (Gibco) and 10% fetal bovine serum (Gibco). HBEpC were grown in bronchial/tracheal epithelial growth medium obtained from Cell Applications and were used for a maximum of three passages. […] Twenty minutes later, the cells were imaged using an In Cell Analyzer 2200 and cell viability was measured based on viable nuclei count. For the suspension cell line MV-4-11, cells were incubated with the PrestoBlue reagent (Life Technologies) at 37° C. and 5% CO2 for 1 hour, after which cell viability was evaluated based on metabolic activity as measured with the FLUOstar OPTIMA microplate reader (BMG Labtech). […]

[2] = Plasma elimination of CX5461, free versus liposomal; format: in vivo; settings: within 1 hour of injection
Experimental: Cu(DDC)2 was measured by using Cu as a surrogate marker. Samples were diluted in 0.1% HNO3 and subsequently the Cu concentration was measured using AAS (AAnalyst600, Perkin Elmer) as described above. Plasma Cu was corrected using untreated CD-1 mouse plasma as a blank. […] All other compounds were measured using HPLC as summarized below using a Waters Alliance HPLC Module 2695 and photodiode array detector model 996 and Empower 2 Software. […] Similarly, the quantification of CX5461 was performed in acidified methanol to dissociate the complex and CX5461 was measured at 300 nm following separation on a Luna C18 column (5 μm, 4.6×150 mm). The mobile phase contained a 1:1.2 mixture of 0.1% TFA in water and 0.1% TFA in methanol. A 5 μL sample volume was injected, the flow rate was set at 1 mL/min and the column temperature was 35° C.

MV-4-11 (leukemia) cells = test: 72 h cytotoxicity (PrestoBlue), MV-4-11 cells; format: cell-based, human
Experimental: as §1, with “(Sigma-Aldrich).” for “(Sigma-Aldrich). U87, U251MG^O, A549 and MDA231-BR cells were maintained in DMEM (Gibco) supplemented with 2 mM L-glutamine (Gibco) and 10% fetal bovine serum (Gibco). HBEpC were grown in bronchial/tracheal epithelial growth medium obtained from Cell Applications and were used for a maximum of three passages.”
(§2) The anticancer activity of clioquinol (CQ) in cancer lines through copper dependent and independent pathways was examined. […] Cell viability was assessed based on loss of plasma membrane integrity 72 hours following treatment. Total cell count and dead cell count were determined using Hoechst 33342 and ethidium homodimer staining, respectively. […]

[3] = test system: H460 (non-small cell lung cancer); test: 72-hour cytotoxicity assay, H460 cells; format: cell-based
A549 (lung cancer line) = test: 72 h cytotoxicity, A549 cells; format: cell-based, human
Experimental: For studies with DDC, the cell lines U87, and A549 were obtained from ATCC, HBEpC (Human Bronchial Epithelial Cells) was obtained from Cell Applications (San Deigo, Calif.) and MDA-231-BR was from the NIH/NCI. The U251MG glioblastoma cell line (formerly known as U-373 MG) was originally obtained from American Type Culture Collection (Manassas, Va.) and was used for a maximum of fifteen passages. Subsequently, the U251MG was obtained from Sigma-Aldrich (product number 09063001). […] Both cell lines are now being maintained as separate lines U251MG^O (original line) and U251MG^SA (Sigma-Aldrich). […] Twenty minutes later, the cells were imaged using an In Cell Analyzer 2200 and cell viability was measured based on viable nuclei count. For the suspension cell line MV-4-11, cells were incubated with the PrestoBlue reagent (Life Technologies) at 37° C. and 5% CO2 for 1 hour, after which cell viability was evaluated based on metabolic activity as measured with the FLUOstar OPTIMA microplate reader (BMG Labtech).
as §2

U251 (glioblastoma line) = test: 72 h cytotoxicity, IN CELL Analyzer, U251 cells; format: cell-based, human
Experimental: The U251MG glioblastoma cell line (formerly known as U-373 MG) was originally obtained from American Type Culture Collection (Manassas, Va.) and was used for a maximum of fifteen passages. […] U87, U251MG^O, A549 and MDA231-BR cells were maintained in DMEM (Gibco) supplemented with 2 mM L-glutamine (Gibco) and 10% fetal bovine serum (Gibco). […] All cells were maintained at 37° C. and 5% CO2 The cells were seeded into 384 well plates and allowed to grow for 24 hrs and then treated as specified for 72 hours. To assess the cytotoxic effects of the indicated compounds in adherent cell lines, the cells were stained with Hoescht 33342 and ethidium homodimer I for total and dead cell counts, respectively. Twenty minutes later, the cells were imaged using an In Cell Analyzer 2200 and cell viability was measured based on viable nuclei count.

[4] = test system: normal human bronchial epithelial cells HBEpC; test: 72 h cytotoxicity, normal bronchial epithelial cells; format: cell-based
Experimental: (§3) For studies with DDC, the cell lines U87, and A549 were obtained from ATCC, HBEpC (Human Bronchial Epithelial Cells) was obtained from Cell Applications (San Deigo, Calif.) and MDA-231-BR was from the NIH/NCI. The U251MG glioblastoma cell line (formerly known as U-373 MG) was originally obtained from American Type Culture Collection (Manassas, Va.) and was used for a maximum of fifteen passages. Subsequently, the U251MG was obtained from Sigma-Aldrich (product number 09063001). […] Both cell lines are now being maintained as separate lines U251MG^O (original line) and U251MG^SA (Sigma-Aldrich). U87, U251MG^O, A549 and MDA231-BR cells were maintained in DMEM (Gibco) supplemented with 2 mM L-glutamine (Gibco) and 10% fetal bovine serum (Gibco). HBEpC were grown in bronchial/tracheal epithelial growth medium obtained from Cell Applications and were used for a maximum of three passages. […] Twenty minutes later, the cells were imaged using an In Cell Analyzer 2200 and cell viability was measured based on viable nuclei count. For the suspension cell line MV-4-11, cells were incubated with the PrestoBlue reagent (Life Technologies) at 37° C. and 5% CO2 for 1 hour, after which cell viability was evaluated based on metabolic activity as measured with the FLUOstar OPTIMA microplate reader (BMG Labtech).

[5] = test system: MDA-231BR (triple negative breast cancer line); test: 72 h cytotoxicity, IN CELL Analyzer, MDA-231BR cells; format: cell-based; settings: copper+DDC
Experimental: as §3

[6] = Aqueous solubility of metal complexes (qualitative); format: physicochemical
[7] = test system: A2780-CP (human ovarian carcinoma, platinum insensitive); test: 72 h cytotoxicity, IN CELL Analyzer, A2780-CP cells; format: cell-based
Experimental: (§4) The anticancer activity of clioquinol (CQ) in cancer lines through copper dependent and independent pathways was examined. Both CQ (-●-) and Cu(CQ)2 (-▪-) were dissolved in DMSO and diluted to a final concentration of <0.5% (at higher concentrations (>100 μM) of Cu(CQ)2, precipitated drug could be seen under the microscope). A2780-S (human ovarian carcinoma, platinum sensitive), A2780-CP (human ovarian carcinoma, platinum insensitive) as well as A549 (human lung cancer), U251 (human glioblastoma) cytotoxicity curves (FIG. 22 A-D) were obtained with the IN CELL Analyzer 2200. Cell viability was assessed based on loss of plasma membrane integrity 72 hours following treatment. Total cell count and dead cell count were determined using Hoechst 33342 and ethidium homodimer staining, respectively. The CQ cytotoxicity curve in MV-4-11 (human leukemia) was generated using PrestoBlue reagent to establish cell viability through metabolic activity.

[8] = test system: A2780-S (human ovarian carcinoma, platinum sensitive); test: 72 h cytotoxicity, IN CELL Analyzer, A2780-S cells; format: cell-based
Experimental: FIG. 26 Clioquinol metal complex cytotoxicity in A2780-S (ovarian cancer) cells. (A) Cytotoxicity curves for CQ (-●-), Cu(CQ)2 (-▪-) and Zn(CQ)2 (-♦-) were obtained using the INCELL analyzer where viability was assessed based on loss of plasma membrane integrity 72 hours following treatment; i.e., total cell count and dead cell count were determined using Hoechst 33342 and ethidium homodimer staining, respectively. Results are given as mean ±SEM (B) IC50 values of CQ and metal complexes in A2780-S (IC50±95% CI).
as §4, with “The CQ cytotoxicity curve in MV-4-11 (human leukemia) was generated using PrestoBlue reagent to establish cell viability through metabolic activity.” left out

U87 glioblastoma cells = test: cells; format: cell-based; settings: for IC50: Homo sapiens, U-87 MG, absence of copper, 72 h
Experimental: For studies with DDC, the cell lines U87, and A549 were obtained from ATCC, HBEpC (Human Bronchial Epithelial Cells) was obtained from Cell Applications (San Deigo, Calif.) and MDA-231-BR was from the NIH/NCI. The U251MG glioblastoma cell line (formerly known as U-373 MG) was originally obtained from American Type Culture Collection (Manassas, Va.) and was used for a maximum of fifteen passages. Subsequently, the U251MG was obtained from Sigma-Aldrich (product number 09063001). […] Both cell lines are now being maintained as separate lines U251MG^O (original line) and U251MG^SA (Sigma-Aldrich). U87, U251MG^O, A549 and MDA231-BR cells were maintained in DMEM (Gibco) supplemented with 2 mM L-glutamine (Gibco) and 10% fetal bovine serum (Gibco). HBEpC were grown in bronchial/tracheal epithelial growth medium obtained from Cell Applications and were used for a maximum of three passages. All cells were maintained at 37° C. and 5% CO2 The cells were seeded into 384 well plates and allowed to grow for 24 hrs and then treated as specified for 72 hours. To assess the cytotoxic effects of the indicated compounds in adherent cell lines, the cells were stained with Hoescht 33342 and ethidium homodimer I for total and dead cell counts, respectively. Twenty minutes later, the cells were imaged using an In Cell Analyzer 2200 and cell viability was measured based on viable nuclei count. For the suspension cell line MV-4-11, cells were incubated with the PrestoBlue reagent (Life Technologies) at 37° C. and 5% CO2 for 1 hour, after which cell viability was evaluated based on metabolic activity as measured with the FLUOstar OPTIMA microplate reader (BMG Labtech).
Cytotoxicity results were obtained with an IN CELL™ Analyzer in U87 glioblastoma cells. Cell viability was assessed based on detection of plasma membrane integrity 72 hours following treatment. Total and dead cell counts were determined using Hoeschst 33342 and ethidium homodimer staining.

[9] = Solubility of quercetin in water and HEPES buffer saline; format: physicochemical
Experimental: (or 22° C.) for 60 minutes in 2 mL of the respective buffers. […] The time points for dissolution were 5, 10, 15, 30 and 60 minutes.
(38 μg/mL). A supersaturated solution of quercetin-HBS remained stable over a one-hour period once removed from heat.

With `Cc1cnc(CNC(=O)c2c(=O)c3ccc(N4CCCN(C)CC4)nc3n3c2sc2ccccc23)cn1` [CX5461] as the compound, how does the “activity (IC50) versus low pH preparation of metal-free compound” value ([1]; combined with CuSO4, dissolution at pH 7.4) read?
The value was “statistically similar”.

And the “activity (IC50) versus low pH preparation of metal-free compound” value ([1]; combined with ZnSO4, dissolution at pH 7.4)?
The value was “statistically similar”.

And the “compound removed from circulation” value [2]?
The value was 96%.

And the “effect of equimolar copper on anti-cancer activity” value (MV-4-11 (leukemia) cells; 72 h)?
Its value is “does not alter”.

What about the “effect of equimolar copper on anti-cancer activity” value [3] of the same compound?
The value was “does not alter”.

With `CCN(CC)C(=S)[S-].CCN(CC)C(=S)[S-].[Cu+2]` [Cu(DDC)2] as the compound, how does the IC50 (A549 (lung cancer line); copper+DDC) read?
Its IC50 is 0.88 µM.

And the IC50 (U251 (glioblastoma line); copper+DDC)?
The IC50 was 0.345 µM.

What about the “activity against normal cells” value [4] of the same compound?
The value was “little activity”.

What about the IC50 [5] of the same compound?
The IC50 was 0.329 µM.

What about the “solubility in water / aqueous solution” value [6] of the same compound?
The value was “highly insoluble; also recorded: almost completely insoluble”.

Which “copper dependence of CQ activity” value (A549 (lung cancer line)) does the source give for `Oc1c(I)cc(Cl)c2cccnc12` [CQ, Clioquinol] here?
Its value is “copper dependant”.

What about the “copper dependence of CQ activity” value (U251 (glioblastoma line)) of the same compound?
The value was “copper independent”.

And the “copper dependence of CQ activity” value [7]?
Its value is “copper dependant”.

What about the “copper dependence of CQ activity” value [8] of the same compound?
Its value is “copper dependant”.

What about the “copper dependence of CQ activity” value (MV-4-11 (leukemia) cells) of the same compound?
Its value is “copper independent”.

Which “shift in cytotoxicity in the presence of copper” value (U87 glioblastoma cells) does the source give for `CCN(CC)C(=S)SSC(=S)N(CC)CC` [DSF, Disulfiram] here?
The value was 2 orders of magnitude.

What about the IC50 (U87 glioblastoma cells) of the same compound?
Its IC50 is greater than 10 µM.

For `O=c1c(O)c(-c2ccc(O)c(O)c2)oc2cc(O)cc(O)c12` [quercetin, Quercetin], which solubility at 60 min ([9]; 60 °C, water, thermodynamic from solid) is on record?
The solubility at 60 min was 12.3 µg/mL (≈ 40.8 µM).

What about the solubility ([9]; 60 min) of the same compound?
The solubility was 38 µg/mL (≈ 126 µM).

What about the solubility ([9]; HBS, room temperature) of the same compound?
Its solubility is 7.78 µg/mL (≈ 25.7 µM).

Which IC50 (U87 glioblastoma cells) does the source give for `CCN(CC)C(=S)S` [DDC, Diethyldithiocarbamate] here?
The IC50 was greater than 10 µM.
